Assay results as given in patent publication US4552888A, “Ascorbic acid ethers in angiogene” (Eli Lilly and Company, priority 1983, dated 1985).

Experiments:
scorbutic guinea pigs = conditions: added to the diet of scorbutic guinea pigs; Gould et al. 1949; cited from earlier work
Vitamin C activity = conditions: orally in aqueous solution; Bezssonoff and Sacrez 1937; cited from earlier work
[1] = system: proline hydroxylation in scorbutic granulomas; conditions: in vitro; Rokosova and Chvapil 1974; cited from earlier work
[2] = system: lung metastases and B16 melanoma; conditions: mice; Folkman and Taylor; cited from earlier work
[3] = system: Madison (M109) lung carcinoma; experiment: Madison lung metastasis assay; format: in vivo, male BALB/C mice
Procedure: In addition, the compounds of this invention have found utility as angiogenesis inhibitors in metastatis formation. Such activity has been found in an artificial metastasis model using Madison lung (M 109) carcinoma which metastasizes preferentially to lungs and is not overly sensitive to chemotherapeutic agents. The test is carried out as follows.
The Madison (M109) lung carcinoma is carried as a transplantable line in syngeneic BALB/C mice. This tumor line was obtained from the tumor bank at Mason Research Institute, Worcester, Mass. For tumor metastasis studies, a subcutaneously-grown tumor is aseptically excised, minced into small pieces with a scissors, and gently trypsinized at room temperature to obtain a single cell suspension. The cells are suspended in RPMI-1640 medium (M. A. Bioproducts, Walkersville, MD). Viable M109 cells are determined by trypan blue exclusion, and the cell concentration is determined with a hemocytometer. The cells are adjusted to 1×10^5 viable cells/ml. of medium. M109 cells are injected i.v. into normal, male BALB/C mice. Inoculum volume per mouse is 0.2 ml. (2×10^4 cells). Drugs are administered i.p. to randomized groups of 10 mice 2 days prior to tumor cell inoculation. Controls receive mock injections of 0.5 ml. buffer. Daily mortality is monitored, and median survival times are determined for each group. Cytoxan was employed as a positive control. In the Table, column 1 gives drug treatment and columns 2 and 3 measures number of lesions±standard error per lung on days 30 and 42.
The growth rate and number of lung metastases in the above experiment were less than usual. A new transplant line was employed in a second determination with lung lesions developing earlier. Table 6 records the results of this experiment; here ascorbic acid was employed as the control drug.

Morris hepatoma (5123D) = experiment: Growth/induction of transplanted Morris hepatoma (5123D) in ICFA-treated rats; format: in vivo; conditions: 10-100 mg. once or twice a day orally
Procedure: Another laboratory test involving angiogenesis or neovascularization is based on the time period required for a differentiated tumor to become undifferentiated (vascularized). An inflammatory response enhances tumor growth and reduces the lag phase. In this test, rats are injected with a test drug (30 minutes prior to dosing) with ICFA (incomplete Freund's adjuvant) plus India ink intradermally in a shaved area on a rat's back, thus providing a marked injection site. After 3 days of twice daily administration of the test drug followed 30 minutes later by administration of ICFA, the tumor is transplanted on the periphery of the marked injection site. The animals are weighed and the tumor size determined (length+width/2) at weekly intervals for 4 weeks. Morris hepatoma (5123D) was used as the […] tumor.
0.5 cc. of ICFA were also given once or twice daily subcutaneously to each test rat.

[4] = system: paw swelling caused by Type II collagen; experiment: Collagen arthritis assay (type II collagen-induced paw swelling); format: in vivo, inbred Lewis male rats
Procedure: This test method is a collagen arthritis assay carried out as follows. Type II collagen is isolated from bovine articular cartilage by the method of […] and Nimni [Biochemistry, 10, 3905, (1971)]. The collagen is dissolved in 0.1M acetic acid and stored at -20°. Type II collagen solution is diluted to 2 mg./ml. concentration and emulsified thoroughly with an equal volume of incomplete Freund's adjuvant (ICFA). The emulsion containing approximately 0.5 mg. of collagen is injected intradermally to groups of 6 inbred Lewis male rats (Charles River Breeders; 170-200 g.) at various sites in the dorsal area. The hindpaw volumes of each rat is measured and recorded three times a week throughout the test period to assess the inflammatory reaction. The animals receive compounds under test as suspensions in carboxymethylcellulose vehicle, by oral gavage, 5 days per week (Mon.-Fri.). At the end of the test (day 28 or 30), the blood of these animals is drawn by cardiac puncture and the serum anti-type II collagen antibody levels are estimated by passive hemagglutination technique, using glutaraldehyde treated sheep red cells, to which type II collagen is conjugated [[…] et al., Immunochemistry, 6, 67,1969); Andriopoulos et al., Arth. Rheum., 19, 613, (1976)]. The cellular response or delayed-type hypersensitivity response to type II collagen is measured by the radiometric ear index assay (Kostiala, Immunology, 33, 561, 1977). In certain experiments, the bone damage occurring because of immunization with type II collagen and the effects of drugs are determined from the radiographs of the hindpaws of two or three representative animals from each group. Injections of ICFAs alone were employed to some rats as a negative control.

COC1=C(O)C(=O)O[C@@H]1[C@@H](O)CO [3-methylascorbic acid]
vitamin C activity relative to ascorbic acid (scorbutic guinea pigs): about 1/50
Vitamin C activity (Vitamin C activity): active
stimulation of proline hydroxylation [1]: had an effect in vitro

protamine
inhibition of lung metastases and B16 melanoma [2]: inhibited lung metastases and B16 melanoma in mice

CCCCCCCCCCCCCCCCCCOC1=C(O)C(=O)O[C@@H]1[C@@H](O)CO [3-O-n-octadecyl-L-ascorbic acid]
Mean No. of Lesions ± S.E./Lung ([3]; Table 5, Day 30, 35 mg./kg. i.p., Emulphor control 15.8 ± 4.6): 1.8 ± 1.2 Lesions/Lung
Mean No. of Lesions ± S.E./Lung ([3]; Table 5, Day 42, 35 mg./kg. i.p., Emulphor control 20.6 ± 1.8): 18.6 ± 1.3 Lesions/Lung
Mean No. of Lesions ± S.E./Lung ([3]; Table 6, 16 day, new transplant line, 30 mg./kg., Emulphor control 69.8 ± 10.4): 10.7 ± 3.4 Lesions/Lung
Mean No. of Lesions ± S.E./Lung ([3]; Table 6, 16 day, new transplant line, 100 mg./kg., Emulphor control 69.8 ± 10.4): 13.0 ± 5.1 Lesions/Lung
growth of the undifferentiated tumor (Morris hepatoma (5123D); alternative outcome to delayed induction): inhibited the growth of the undifferentiated tumor
delay of tumor induction (Morris hepatoma (5123D); alternative outcome to growth inhibition): 4 to 7 days
decrease of paw volumes ([4]; 12.5 mg./kg.): about 25%
paw volumes vs controls ([4]; 17.5 mg./kg.): indistinguishable from controls
decrease of paw volume vs positive controls (collagen, no drug) ([4]; 50 mg./kg., other runs): 90-100%
paw volumes vs ICFA-treated rats (negative controls) ([4]; oral 50 mg./kg., one experiment): not substantially different from those of the ICFA-treated rats
